Laboratory results as given in article PMC10636063, “Progesterone activation of β1-containing BK channels involves two binding sites” (Nature Communications, 2023).
Where “and” joins values, the source holds several entries; their conditions need not be identical. Equal entries are not always repeated.

Assays:
[1] = target: T1, BK β1 subunit (KCNMB1 product) (Rattus norvegicus, UniProt P97678); assay: Thermal unfolding (microscale thermophoresis, Prometheus) of purified wt β1; format: binding; conditions: vs DMSO
T1 construct: FLAG (DYKDDDDK); made in house; host or cells: CHO cells, transient transfection, anti-flag immunoprecipitation
T1 sequence (P97678 1-191): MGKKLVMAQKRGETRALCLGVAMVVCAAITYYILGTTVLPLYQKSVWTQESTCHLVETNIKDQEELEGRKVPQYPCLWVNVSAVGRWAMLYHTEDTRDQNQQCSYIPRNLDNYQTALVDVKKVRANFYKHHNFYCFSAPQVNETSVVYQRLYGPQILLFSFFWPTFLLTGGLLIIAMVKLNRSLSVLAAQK
Description: BK channel-forming slo1 cDNA (cbv1 isoform; AY330293) was cloned from rat cerebral artery SM cells, and inserted into pcDNA3.1 vector as described. BK β1 cDNA (KCNMB1 product; NP_011452; FJ154955) were isolated from rat cerebral artery SM cells and cloned as described. β4 cDNA (KCNMB4; NP_055320; AY028605) were generously provided by Dr. Ligia Toro. CHO cells were transiently transfected with cbv1 ± β1-, or β4-carrying pcDNA3.1 using X-tremeGENE HP (Sigma-Aldrich). Mutations to β1/4 cDNAs were conducted by Genscript, with sequences being confirmed to be >99% identical to KCNMB1 product; NP_011452 or β4 KCNMB4; NP_055320; respectively. β1/4 and mutant constructs were flag-tagged (DYKDDDDK-tag) by Genscript services for subsequent immunoprecipitation and use in microscale thermophoresis studies.
Wt β1, wt β4 and mutant constructs were purified by immunoprecipitation using Dynabeads Protein G Kit (10007D by Invitrogen) and following the manufacturer’s instructions. Rabbit polyclonal anti-flag antibody (10 µg; Abcam, Cat# ab205606, RRID:AB_2916341) was cross-linked with dynabeads. Transfected CHO cell lysate supernatant was divided into aliquots containing […] per column. Following precipitation, kit instructions for non-denaturing elutions were followed; one elution of 30 µl was collected for each column, and pH was adjusted to 7.5 using UltraPure 1 M Tris-HCI buffer pH 7.5 (cat# 15567027 by Fisher Scientific). PROG stock or vehicle control (DMSO) was added to the eluate to reach PROG final concentrations (0.004-40 µM), all dissolved within the same concentration of DMSO. Glass capillaries were prepared and loaded in triplicates into Prometheus (Nanotemper) and heated from 15° to 95 °C at a rate of 1°/min, the largest thermal scale available to run in the Nanotemper PR.therm-control software. The unfolding profile of a protein is a plot of its fluorescence signal against temperature. The protein is heated at a defined ramp over a specified temperature range. During the heating process, fluorescence is recorded at 330 and 350 nm. The resulting fluorescence ratio change is then analyzed for onset and inflection points. The temperature of onset and inflection is determined using built-in analysis function in Nanotemper PR.therm-control software. The onset of unfolding or aggregation is the temperature at which the channel conformation (unfolding or aggregation) process first starts. […] Onset and inflection points were validated by comparing the first-derivative variations between technical triplicates (high degrees of variations in the first derivative are shown in Supplementary Fig. 1b, c). CRC data obtained from microscale thermophoresis experiments were fitted to a Boltzmann function of the type: y=A1−A2/1+e^x−x0+A2 using Origin 2020 software (OriginLab; OriginLab Corporation).

[2] = system: de-endothelialized, pressurized MCA segments (C57BL/6); assay: Cerebral artery diameter in vitro, de-endothelialized pressurized MCA segments; set-up: species or system mouse
Description: Eight-12 week-old C57BL/6J and KCNMB1^−/− on C57BL/6 background mice of both sexes were deeply anesthetized with isoflurane via inhalation in a tightly sealed jar. Resistance size MCAs (~100 μm in external diameter) were dissected out of the mouse brains after animal euthanasia with sharp scissors. For de-endothelialized records, the endothelium was removed by passing an air bubble into the vessel lumen for 90 s[30]. This method has been consistently used by our group and validated using endothelium-dependent versus endothelium-independent vasodilators[16],[26]. Arteries were cannulated as previously described by our group[26],[40]. MCAs were cut into 5 to 10 mm-long segments under a microscope (Nikon SMZ645). The segment was cannulated at each end, and the artery exterior was continuously perfused with physiologic sodium saline (PSS) of the following composition (mM): 119 NaCl, 4.7 KCl, 1.2 KH2PO4, 1.6 CaCl2, 1.2 MgSO4, 0.023 EDTA, 11 glucose, 24 NaHCO3, pH=7.4. PSS was continuously bubbled with an O2/CO2/N2 (21/5/74%) gas mixture and maintained at 35–37 °C. The artery external wall diameter was measured using the automatic edge-detection function of lonWizard software (lonOptix) via Sanyo VCB-3512T camera (Sanyo Electric Co.). Arteries were first incubated at an intravascular pressure of 10 mm Hg for 10 min. Then intravascular pressure was increased to 60 mmHg and held steady throughout the experiment to induce myogenic tone development and maintenance[19],[30],[51]. Each artery segment was exposed to PROG, PROG-oxime (in presence and absence of 1 µM paxilline) only once to avoid development of desensitization during repeated applications of PROG-containing solution. To determine arterial viability, arterial contractility was probed with a high KCl solution at the end of each experiment. The high KCl solution was composed of the following composition (mM): 63.7 NaCl, 60 KCl, 1.2 KH2PO4, 1.2 MgSO4, 0.023 EDTA, 11 glucose, 24 NaHCO3, 1.6 CaCl2, pH=7.4. Like PSS, the high-KCl solution was continuously bubbled with O2/CO2/N2 (21/5/74%) gas mixture and maintained at 35–37 °C.

[3] = system: pial arteries branching out of the MCA (C57BL/6J); assay: Cerebral artery diameter through cranial window in vivo; set-up: species or system mouse; conditions: individual replicates
Description: Eight-12 week-old male and female C57BL/6J mice were anesthetized with a mixture of xylazine/ketamine (12/100 mg per kg) and kept anesthetized for the duration of the experiment with subsequent ketamine doses (50 mg/kg of weight) as needed. A catheter was inserted into the carotid artery so that the infusion went straight to the brain rather than towards the thoracic cavity. An area of the skull was cleared of tissue and thinned to expose the branching arteries originating from the MCA on the side the catheter was inserted, above the zygomatic arch, between the ear and eye of the skull[19],[34]. The exposed arteries branching out from the MCA were monitored using a Leica MC170 HD microscope with a mounted camera (Leica M125 C) connected to a computer monitor. Drugs were diluted to their final concentration in sodium saline (0.9% NaCl) and administered via catheter at 0.1 ml/25 g of weight. Cranial window images before and after drug administration were acquired every 60 seconds for subsequent analysis.

## CC(=O)C1CCC2C3CCC4=CC(=NOCC(=O)O)CCC4(C)C3CCC12C (stereo not shown) [PROG-oxime, progesterone 3-(O-carboxymethyl)oxime]
[1]
  effect on thermal unfolding / binding: actual binding to wt β1
[2]; 10 μM in the presence of 1 μM paxilline
  vasoactive response of MCA segments: MCA constriction that was preserved
[2]; 10 μM, male and female mice
  vasoactive response of MCA segments: failed to evoke MCA dilation
[3]; Fig 7C, time 0, male mice
  artery diameter, normalized to time 0: 1 (4×) and 1.00
[3]; Fig 7C, time 1, male mice
  artery diameter, normalized to time 0: 0.9683 and 1.00 and 1.045 and 1.037 and 1.174
[3]; Fig 7C, time 2, male mice
  artery diameter, normalized to time 0: 0.9748 and 0.99 and 1.075 and 1.065 and 0.9672
[3]; Fig 7C, time 3, male mice
  artery diameter, normalized to time 0: 0.9521 and 0.88 and 1.045 and 0.8398 and 1.066
[3]; Fig 7C, time 4, male mice
  artery diameter, normalized to time 0: 0.9683 and 0.84 and 0.9351 and 0.8169 and 0.9018
[3]; Fig 7C, time 5, male mice
  artery diameter, normalized to time 0: 1.008 and 1.01 and 1.026 and 0.9472 and 0.9098
[3]; Fig 7C, time 6, male mice
  artery diameter, normalized to time 0: 1.041 and 0.92 and 0.9494 and 0.9176 and 1.063
[3]; Fig 7C, time 7, male mice
  artery diameter, normalized to time 0: 0.9184 and 0.90 and 0.9635 and 0.9259 and 0.9935
[3]; Fig 7C, time 8, male mice
  artery diameter, normalized to time 0: 0.9894 and 0.92 and 0.9405 and 0.9778 and 0.9794
[3]; Fig 7C, time 9, male mice
  artery diameter, normalized to time 0: 0.8438 and 0.91 and 1.0031 and 0.973 and 0.9169
[3]; Fig 7D, time 0, female mice
  artery diameter, normalized to time 0: 1.00 and 1 (4×)
[3]; Fig 7D, time 1, female mice
  artery diameter, normalized to time 0: 0.90 and 1.017 and 1.077 and 0.9108 and 0.9562
[3]; Fig 7D, time 2, female mice
  artery diameter, normalized to time 0: 0.98 and 0.9692 and 1.08 and 1.015 (2×)
[3]; Fig 7D, time 3, female mice
  artery diameter, normalized to time 0: 0.96 and 0.8809 and 1.0998 and 0.9303 and 1.006
[3]; Fig 7D, time 4, female mice
  artery diameter, normalized to time 0: 0.71 and 0.9764 and 0.9876 and 0.9569 and 0.8502
[3]; Fig 7D, time 5, female mice
  artery diameter, normalized to time 0: 0.75 and 0.9574 and 1.009 and 0.7872 and 0.892
[3]; Fig 7D, time 6, female mice
  artery diameter, normalized to time 0: 0.76 and 0.8573 and 1.009 and 0.8606 and 0.8869
[3]; Fig 7D, time 7, female mice
  artery diameter, normalized to time 0: 0.82 and 0.8681 and 0.9667 and 0.8496 and 0.8082
[3]; Fig 7D, time 8, female mice
  artery diameter, normalized to time 0: 0.87 and 0.8872 and 1.0207 and 0.8807 and 0.7534
[3]; Fig 7D, time 9, female mice
  artery diameter, normalized to time 0: 0.74 and 0.8893 and 0.9136 and 0.9444 and 0.8332
[3]; Fig 7E, same values as Fig 7C time 7, male mice
  artery diameter, normalized (PROG vs oxime comparison): 0.8986
[3]; Fig 7F, same values as Fig 7D time 7, female mice
  artery diameter, normalized (PROG vs oxime comparison): 0.97 and 0.85 and 0.81
